Source: PMC3920638, “The Development of Selective Inhibitors of NagZ: Increased Susceptibility of Gram-Negative Bacteria to β-Lactams” (Chembiochem, 2013)
Converted amounts (≈) assume the structure as drawn. Like-named read-outs stand apart in the source and are kept apart here.

Experiments:
O-GlcNAcase (OGA) = biological target: T1, O-GlcNAcase (OGA) (Homo sapiens, UniProt O60502); test: Kinetic analysis of inhibitors against O-GlcNAcase; type: biochemical
T1 sequence (O60502 1-916): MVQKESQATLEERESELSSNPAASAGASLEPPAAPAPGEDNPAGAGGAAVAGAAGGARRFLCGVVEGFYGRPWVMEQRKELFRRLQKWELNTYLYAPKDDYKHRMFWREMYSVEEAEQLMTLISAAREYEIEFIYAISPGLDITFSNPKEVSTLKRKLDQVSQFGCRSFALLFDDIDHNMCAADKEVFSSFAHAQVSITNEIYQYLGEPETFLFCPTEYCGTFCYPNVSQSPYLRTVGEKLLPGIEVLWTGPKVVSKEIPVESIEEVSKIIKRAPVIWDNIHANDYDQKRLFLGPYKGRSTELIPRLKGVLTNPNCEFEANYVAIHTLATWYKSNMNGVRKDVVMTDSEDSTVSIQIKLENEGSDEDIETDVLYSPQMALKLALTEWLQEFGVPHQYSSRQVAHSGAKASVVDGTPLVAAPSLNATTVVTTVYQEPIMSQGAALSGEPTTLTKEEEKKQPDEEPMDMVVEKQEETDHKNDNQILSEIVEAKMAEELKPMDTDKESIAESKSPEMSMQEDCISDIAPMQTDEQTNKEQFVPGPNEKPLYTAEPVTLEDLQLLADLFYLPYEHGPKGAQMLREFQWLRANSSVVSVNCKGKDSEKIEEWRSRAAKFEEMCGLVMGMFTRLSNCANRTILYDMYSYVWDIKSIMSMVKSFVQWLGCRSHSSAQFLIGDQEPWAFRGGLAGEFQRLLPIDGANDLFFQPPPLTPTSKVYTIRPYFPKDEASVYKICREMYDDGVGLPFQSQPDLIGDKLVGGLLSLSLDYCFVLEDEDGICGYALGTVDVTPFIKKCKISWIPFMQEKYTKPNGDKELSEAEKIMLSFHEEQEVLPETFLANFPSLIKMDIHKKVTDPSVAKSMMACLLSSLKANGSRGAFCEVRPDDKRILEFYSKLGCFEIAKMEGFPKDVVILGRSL
Method: (§1) Kinetic analysis of inhibitors: Assays against O-GlcNAcase, VcNagZ and StNagZ were performed in NaPi buffer (50 mM, NaCl (100 mM), pH 6.5) and for β-hexosaminidase B citrate buffer (50 mM, NaCl (100 mM), pH 4.25) using 4-methylumbelliferyl N-acetyl-β-D-glucosaminide as substrate. For NAGLU, assays were performed in acetate buffer (100 mM, pH 4.3), containing bovine serum albumin (0.5 mgmL^−1) using 4-methylumbelliferyl N-acetyl-α-D-glucosaminide as substrate. Release of 4-methylumbelliferone was monitored continuously using a fluorimeter plate reader for OGA, VcNagZ and StNagZ, and a 30 min stopped-assay procedure was used for β-hexosaminidase B and NAGLU (quenched with fourfold excess of quenching buffer, glycine (200 mM), pH 10.75). For OGA, the inhibitors were preincubated with the enzyme for 10 min before the addition of the substrate. Readings were taken at excitation and emission wavelengths of 368 nm and 450 nm respectively. […] Inhibitors were added at a range of concentrations encompassing their Ki values. The rates at each inhibitor concentration were plotted and the best fit line through the points ascertained. The −1/Ki was taken as the point where the line of best fit intersected with 1/Vmax.

StNagZ = biological target: T2, StNagZ (Salmonella typhimurium, UniProt Q8ZQ06); test: Kinetic analysis of inhibitors against StNagZ; type: biochemical; conditions: for S.R. (Ki OGA/Ki StNagZ): selectivity ratio
T2 construct: made in house

NAGLU [1] = biological target: T3, NAGLU (Homo sapiens, UniProt P54802); test: Kinetic analysis of inhibitors against NAGLU; type: biochemical
T3 sequence (P54802 24-743): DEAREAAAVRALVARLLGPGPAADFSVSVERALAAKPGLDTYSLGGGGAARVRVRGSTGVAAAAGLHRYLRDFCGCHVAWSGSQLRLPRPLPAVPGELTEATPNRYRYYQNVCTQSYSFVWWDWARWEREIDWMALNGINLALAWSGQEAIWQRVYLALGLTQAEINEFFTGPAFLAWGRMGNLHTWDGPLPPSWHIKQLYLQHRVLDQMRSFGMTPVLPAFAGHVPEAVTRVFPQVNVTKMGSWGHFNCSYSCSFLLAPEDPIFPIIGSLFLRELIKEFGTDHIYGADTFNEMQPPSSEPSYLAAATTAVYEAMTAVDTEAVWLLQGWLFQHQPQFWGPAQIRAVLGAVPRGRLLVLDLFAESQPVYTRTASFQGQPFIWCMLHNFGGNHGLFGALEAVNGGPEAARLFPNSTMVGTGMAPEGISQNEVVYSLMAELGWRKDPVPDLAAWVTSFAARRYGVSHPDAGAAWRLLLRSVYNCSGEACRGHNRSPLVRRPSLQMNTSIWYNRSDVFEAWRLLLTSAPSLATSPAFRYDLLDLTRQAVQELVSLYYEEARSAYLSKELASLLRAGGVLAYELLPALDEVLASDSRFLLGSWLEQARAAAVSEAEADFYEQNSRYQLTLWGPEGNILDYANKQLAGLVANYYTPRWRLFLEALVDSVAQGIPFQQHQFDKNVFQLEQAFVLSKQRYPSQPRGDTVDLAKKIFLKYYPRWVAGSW
Method: as §1

VcNagZ = biological target: T4, VcNagZ (Vibrio cholerae serotype O1, UniProt Q9KU37); test: Kinetic analysis of inhibitors against VcNagZ; type: biochemical; conditions: for S.R. (Ki OGA/Ki VcNagZ): selectivity ratio
T4 sequence (Q9KU37 1-330): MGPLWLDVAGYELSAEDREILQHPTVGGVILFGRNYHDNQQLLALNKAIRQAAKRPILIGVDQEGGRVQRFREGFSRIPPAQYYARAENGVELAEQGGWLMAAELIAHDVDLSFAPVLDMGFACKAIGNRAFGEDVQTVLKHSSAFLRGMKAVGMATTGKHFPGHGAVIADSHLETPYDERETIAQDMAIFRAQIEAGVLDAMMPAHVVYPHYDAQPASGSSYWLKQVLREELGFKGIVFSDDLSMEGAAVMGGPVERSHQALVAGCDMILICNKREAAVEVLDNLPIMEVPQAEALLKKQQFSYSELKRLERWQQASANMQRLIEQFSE
Method: as §1

β-hexosaminidase B = biological target: T5, β-hexosaminidase B (Homo sapiens, UniProt P07686); test: Kinetic analysis of inhibitors against β-hexosaminidase B; type: biochemical
T5 sequence (P07686 122-556): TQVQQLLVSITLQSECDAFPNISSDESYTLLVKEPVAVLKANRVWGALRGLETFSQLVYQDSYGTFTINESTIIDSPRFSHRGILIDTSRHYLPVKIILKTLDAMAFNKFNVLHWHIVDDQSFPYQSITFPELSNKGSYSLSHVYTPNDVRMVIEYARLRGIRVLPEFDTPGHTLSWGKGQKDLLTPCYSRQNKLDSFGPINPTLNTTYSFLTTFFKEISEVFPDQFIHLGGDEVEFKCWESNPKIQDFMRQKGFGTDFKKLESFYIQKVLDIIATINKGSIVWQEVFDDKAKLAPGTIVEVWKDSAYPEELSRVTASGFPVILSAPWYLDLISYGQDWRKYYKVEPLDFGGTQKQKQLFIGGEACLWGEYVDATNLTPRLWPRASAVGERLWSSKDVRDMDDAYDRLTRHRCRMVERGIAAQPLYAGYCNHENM
Method: as §1

P. aeruginosa PA01 [2] = test: Minimal inhibitory concentration of β-lactams by serial dilution; conditions: Pseudomonas aeruginosa, PA01, 18 h, standard serial dilution, 18 h at 37°C
Method: Determination of the Minimal Inhibitory Concentration of β-lactams: Cultures were prepared by inoculating Mueller–Hinton broth (5 mL) with a small amount of a glycerol stock of P. aeruginosa PA01 and then were grown at 37°C to an OD600 value of ≈0.5. 96-well plates containing a range of concentrations of β-lactams varying by factors of 2 were prepared. […] These broths were inoculated with the culture (100 μL) and allowed to incubate at 37°C for 18 h. […] All MIC determinations were performed in triplicate.

P. aeruginosa PA01 [3] = test: Control: 21 alone as inhibitor of bacterial growth; type: cell-based, Pseudomonas aeruginosa; conditions: up to 1 mM (data not shown)
Description: . […] Of note is that the concentration of 21 required to give rise to the increased susceptibility observed is fivefold less than the concentration of the PUGNAc analogue O-(2-deoxy-2-N-2-ethylbutyryl-D-glucopyranosylidene)amino N-phenylcarbamate (EtBuPUG) used previously to induce a similar effect.[23]

NAGLU [4] = biological target: T3, NAGLU; parameters: method as in PMID 10833408; conditions: read-out: NAGLU Ki; literature value; cited from earlier work
P. aeruginosa PA01 [5] = test: Agar diffusion test; type: cell-based, Pseudomonas aeruginosa; conditions: 6 mm filter disks loaded with 30 μg of antibiotic, incubation overnight
[6] = +21 (20 μL of 1 mM in H2O per well)

| SMILES | Ki (O-GlcNAcase (OGA)) | Ki (StNagZ) | S.R. (Ki OGA/Ki StNagZ) (StNagZ) | Ki (NAGLU [1]) | Ki (VcNagZ) | S.R. (Ki OGA/Ki VcNagZ) (VcNagZ) | Ki (β-hexosaminidase B) | MIC (P. aeruginosa PA01 [2]; [6]) | MIC (P. aeruginosa PA01 [2]; −21) | effect on bacterial growth rates (P. aeruginosa PA01 [3]) | Ki (NAGLU [4]) | Clearing radius (P. aeruginosa PA01 [5]; +21) | Clearing radius (P. aeruginosa PA01 [5]; −21) |
| --- | --- | --- | --- | --- | --- | --- | --- | --- | --- | --- | --- | --- | --- |
| CCCCC(=O)N[C@H]1CN[C@H](CO)[C@@H](O)[C@@H]1O [Compound 22, 1,5-Imino-1,2,5-trideoxy-2-valeramido-D-glucitol] | > 1000 µM | 47.3 µM | >21 | > 1000 µM | 110 µM | >9 | > 5000 µM |  |  |  |  |  |  |
| CC(C)C(=O)N[C@H]1CN[C@H](CO)[C@@H](O)[C@@H]1O [Compound 24, 1,5-Imino-2-isobutamido-1,2,5-trideoxy-D-glucitol] | > 1000 µM | 24.6 µM | >40 | 800 µM | 15.8 µM |  | 670 µM |  |  |  |  |  |  |
| CC1(C)S[C@@H]2[C@H](NC(=O)[C@H](N)c3ccccc3)C(=O)N2[C@H]1C(=O)O [Ampicillin, ampicillin] |  |  |  |  |  |  |  | 128 µg/mL (≈ 366 µM) | 512 µg/mL (≈ 1470 µM) |  |  |  |  |
| CC(C)CC(=O)N[C@H]1CN[C@H](CO)[C@@H](O)[C@@H]1O [Compound 25, 1,5-Imino-2-isovaleramido-1,2,5-trideoxy-D-glucitol] | > 1000 µM | 294 µM | >3.4 | > 1000 µM | 555 µM | >1.8 | > 5000 µM |  |  |  |  |  |  |
| CCCC(=O)N[C@H]1CN[C@H](CO)[C@@H](O)[C@@H]1O [Compound 21, 2-Butamido-1,5-imino-1,2,5-trideoxy-D-glucitol] | > 500 µM |  | >22 | > 1000 µM | 9.4 µM | >53 | 1460 µM |  |  | no differences in growth rates |  |  |  |
| C[C@H]1[C@H](NC(=O)/C(=N\OC(C)(C)C(=O)O)c2csc(N)n2)C(=O)N1S(=O)(=O)O [Aztreonam, aztreonam] |  |  |  |  |  |  |  | 0.5 µg/mL (≈ 1.15 µM) | 1 µg/mL (≈ 2.3 µM) |  |  |  |  |
| CC(=O)N[C@H]1CN[C@H](CO)[C@@H](O)[C@@H]1O [Compound 1, 2-Acetamido-1,5-imino-1,2,5-trideoxy-D-glucitol] | 23 µM | 25.2 µM | 0.94 |  | 8.5 µM | 2.8 |  |  |  |  | 0.45 µM |  |  |
| C[C@@H](O)[C@H]1C(=O)N2C(C(=O)O)=C(SCCN=CN)C[C@H]12 [Imipenem, imipenem] |  |  |  |  |  |  |  | 4 µg/mL (≈ 13.4 µM) | 8 µg/mL (≈ 26.7 µM) |  |  | 13.3 mm | 11.9 mm |
| CO[C@@]1(NC(=O)Cc2cccs2)C(=O)N2C(C(=O)O)=C(COC(N)=O)CS[C@@H]21 [Cefoxitin, cefoxitin] |  |  |  |  |  |  |  | 512 µg/mL (≈ 1200 µM) | 2050 µg/mL (≈ 4790 µM) |  |  |  |  |
| CCC(=O)N[C@H]1CN[C@H](CO)[C@@H](O)[C@@H]1O [Compound 20, 1,5-Imino-2-propamido-1,2,5-trideoxy-D-glucitol] | 130 µM | 45.4 µM | 2.9 | 96 µM | 4.2 µM | 31 | 61 µM |  |  |  |  |  |  |
| CCCCCC(=O)N[C@H]1CN[C@H](CO)[C@@H](O)[C@@H]1O [Compound 23, 2-Hexamido-1,5-imino-1,2,5-trideoxy-D-glucitol] | > 1000 µM | 102 µM | >10 | > 1000 µM | 1130 µM | >0.9 | > 5000 µM |  |  |  |  |  |  |
| CC(C)(O/N=C(\C(=O)N[C@@H]1C(=O)N2C(C(=O)[O-])=C(C[n+]3ccccc3)CS[C@H]12)c1csc(N)n1)C(=O)O [Ceftazidime, ceftazidime] |  |  |  |  |  |  |  | 0.5 µg/mL (≈ 0.915 µM) | 2 µg/mL (≈ 3.66 µM) |  |  | 14.3 mm | 12.2 mm |
